The supplement of paper PMC11061612

Key:
Assay in all cases: Bliss excess, mean over the matrix (fraction); higher = more synergy
[1] = system: MDST8 (Colorectal Carcinoma)
Method in brief: (§1)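 Cell lines grown in DMEM/F12 or RPMI with 10% FBS were plated in 1536-well plates and held 24 hours at 37°C, 5% CO2 before 72 hours of exposure to two-drug dose matrices, with DMSO typically at 0.2%. CellTiter-Glo 2.0 luminescence gave viability, which was converted to inhibition. Vehicle wells were set to 0 and blank wells to 1. Combination Emax is the second-highest inhibition in the matrix, and Bliss excess is the observed combination effect minus the expected EA + EB − EA·EB, where EA and EB are the single-agent effects.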

IGR-37 (Melanoma) = system: IGR-37 (Melanoma)
Method in brief: as §1

ARH-77 (Non-Cancerous) = system: ARH-77 (Non-Cancerous)
Method in brief: as §1

CAS-1 (Glioblastoma) = system: CAS-1 (Glioblastoma)
Method in brief: as §1

[2] = system: TT2609-C02 (Thyroid Gland Carcinoma)
Method in brief: as §1

[3] = system: NCI-H1581 (Non-Small Cell Lung Carcinoma)
Method in brief: as §1

[4] = system: NCI-H64 (Small Cell Lung Carcinoma)
Method in brief: as §1

[5] = system: CAL-29 (Bladder Carcinoma)
Method in brief: as §1

A498 (Kidney Carcinoma) = system: A498 (Kidney Carcinoma)
Method in brief: as §1

[6] = system: PANC-10-05 (Pancreatic Carcinoma)
Method in brief: as §1

GI-ME-N (Neuroblastoma) = system: GI-ME-N (Neuroblastoma)
Method in brief: as §1

[7] = system: COR-L311 (Small Cell Lung Carcinoma)
Method in brief: as §1

FU97 (Gastric Carcinoma) = system: FU97 (Gastric Carcinoma)
Method in brief: as §1

[8] = system: VCaP (Prostate Carcinoma)
Method in brief: as §1

[9] = system: ONS-76 (Other Solid Carcinomas)
Method in brief: as §1

8-MG-BA (Glioblastoma) = system: 8-MG-BA (Glioblastoma)
Method in brief: as §1

NY (Osteosarcoma) = system: NY (Osteosarcoma)
Method in brief: as §1

[10] = system: HCC1954 (Breast Carcinoma)
Method in brief: as §1

NCI-H2591 (Mesothelioma) = system: NCI-H2591 (Mesothelioma)
Method in brief: as §1

PA-1 (Ovarian Carcinoma) = system: PA-1 (Ovarian Carcinoma)
Method in brief: as §1

Compound	Bliss excess [1]	Bliss excess (IGR-37 (Melanoma))	Bliss excess (ARH-77 (Non-Cancerous))	Bliss excess (CAS-1 (Glioblastoma))	Bliss excess [2]	Bliss excess [3]	Bliss excess [4]	Bliss excess [5]	Bliss excess (A498 (Kidney Carcinoma))	Bliss excess [6]	Bliss excess (GI-ME-N (Neuroblastoma))	Bliss excess [7]	Bliss excess (FU97 (Gastric Carcinoma))	Bliss excess [8]	Bliss excess [9]	Bliss excess (8-MG-BA (Glioblastoma))	Bliss excess (NY (Osteosarcoma))	Bliss excess [10]	Bliss excess (NCI-H2591 (Mesothelioma))	Bliss excess (PA-1 (Ovarian Carcinoma))
CCN(CCO)CCCOc1ccc2c(Nc3cc(CC(=O)Nc4cccc(F)c4)[nH]n3)ncnc2c1 [AZD2811] + C=CCn1c(=O)c2cnc(Nc3ccc(N4CCN(C)CC4)cc3)nc2n1-c1cccc(C(C)(C)O)n1 [AZD1775] (first compound max 1 µM, partner max 1 µM)	0.064	-0.023	0.024	0.032	-0.0295	0.154	-0.0413	0.0208	-0.0494	-0.021	-0.0112	-0.176	-0.0289	-0.0369	0.018	0.0299	-0.0363	-0.0269	0.0107	0.0565
CCN(CCO)CCCOc1ccc2c(Nc3cc(CC(=O)Nc4cccc(F)c4)[nH]n3)ncnc2c1 [AZD2811] + C[C@@H]1COCCN1C2=NC(=NC(=C2)C3(CC3)[S@](=N)(=O)C)C4=C5C=CNC5=NC=C4 [AZD6738] (first compound max 1 µM, 7x7, partner max 10 µM)	-0.0174	-0.0366	0.0254	-0.0818	-0.0361	-0.0438	-0.075	-0.0023	-0.0832	-0.0793	-0.0437	-0.0642	-0.0795	-0.0864	-0.0864	-0.0212	-0.0508	-0.0263	-0.0338	-0.0116
CCN(CCO)CCCOc1ccc2c(Nc3cc(CC(=O)Nc4cccc(F)c4)[nH]n3)ncnc2c1 [AZD2811] + O=C(c1cc(Cc2n[nH]c(=O)c3ccccc23)ccc1F)N1CCN(C(=O)C2CC2)CC1 [Olaparib] (first compound max 1 µM, 7x7, partner max 10 µM)	0.0271	-0.0353	0.0114	-0.0608	0.0022	-0.0058	0.0589	0.0378	-0.0656	-0.0468	-0.0233	-0.0088	-0.0269	0.0014	-0.0103	0.0327	-0.0339	-0.0023	-0.0332	0.0873
CN(CCO)CC[C@H](CSc1ccccc1)Nc1ccc(S(=O)(=O)NC(=O)c2ccc(N3CCC([C@@H](O)c4ccccc4-c4ccc(Cl)cc4)CC3)cc2)cc1S(=O)(=O)C(F)(F)F [AZD4320] + C1CN(CCC1(C(=O)N[C@@H](CCO)C2=CC=C(C=C2)Cl)N)C3=NC=NC4=C3C=CN4 [Capivasertib] (first compound max 1 µM, 7x7, partner max 3 µM)	-0.0482	-0.0389	0.0277	-0.078	-0.0582	-0.0143	-0.028	-0.0397	-0.0049	-0.0338	-0.0729	0.0397	0.0069	0.0013	-0.0469	-0.0071	-0.0277	0.0377	-0.0455	0.0592
CN(CCO)CC[C@H](CSc1ccccc1)Nc1ccc(S(=O)(=O)NC(=O)c2ccc(N3CCC([C@@H](O)c4ccccc4-c4ccc(Cl)cc4)CC3)cc2)cc1S(=O)(=O)C(F)(F)F [AZD4320] + C=CCn1c(=O)c2cnc(Nc3ccc(N4CCN(C)CC4)cc3)nc2n1-c1cccc(C(C)(C)O)n1 [AZD1775] (first compound max 1 µM, partner max 1 µM)	0.0362	0.0354	-0.0449	0.0261	-0.0244	0.059	0.0886	0.0124	0.0368	-0.0174	-0.0524	-0.0091	-0.0315	0.0072	-0.0196	-0.0417	0.0694	0.0823	-0.0701	0.0773
